{
  "source": "patent US8481297B2",
  "about": "(priority 2009, dated 2013)",
  "system": "U-373MG cells",
  "type": "cell-based, human",
  "note": "Like-named read-outs stand apart in the source and are kept apart here.",
  "data": [
    {"molecule": "CN[C@@H]1C[C@H]2O[C@@](C)([C@@H]1OC)n1c3ccccc3c3c4c(c5c6ccccc6n2c5c31)C(=O)NC4", "note": "[Staurosporine, staurosporine]", "values": [
      {"measurement": "effect on the difference in plaque size between VSV-rp30 and VSV-G/GFP", "result": "significant attenuation of the difference in plaque size"}
    ]},
    {"molecule": "O=c1c(-c2ccc(O)cc2)coc2cc(O)cc(O)c12", "note": "[Genistein, genistein]", "values": [
      {"measurement": "effect on the difference in plaque size between VSV-rp30 and VSV-G/GFP", "setting": "10 μM, 24 hrs", "result": "significantly attenuated the difference in plaque size"}
    ]},
    {"molecule": "tyrphostin 51", "values": [
      {"measurement": "effect on the difference in plaque size between VSV-rp30 and VSV-G/GFP", "result": "no significant effect on the difference in plaque size"}
    ]}
  ]
}
